Test results as given in EP0385712B1, “A peptide for use in the manufacture of a composition for prevention or treatment of a condition susceptible to treatment with a platelet aggregation inhibition agent” (ASAHI KASEI KOGYO KABUSHIKI KAISHA, priority 1989, dated 1994).
Positions of bridges follow the written chain, without caps; N, C: chain ends. Residues, ends and D or L forms follow the SMILES beside them.

System: rat, Wister strain
Assay: Acute toxicity in rat, intravenous
Format: in vivo
Details: body weight 80 - 90 g, 80 µg/kg intravenously in the tail, solution in 0.1 M aqueous sodium acetate containing 0.1 % bovine serum albumin
Procedure: A solution of each of the following compounds in 0.1 M aqueous sodium acetate containing 0.1 % bovine serum albumin is administered into a rat, Wister strain, body weight 80 - 90 g, 80 µg/kg, intraveneously in the tail.

Molecule	Acute toxicity (deaths)
CC(C)C[C@H](NC(=O)[C@H](CCCNC(=N)N)NC(=O)[C@H](Cc1c[nH]cn1)NC(=O)[C@@H](NC(=O)[C@@H](NC(=O)[C@@H]1CSSC[C@H](NC(=O)[C@H](C)N)C(=O)N[C@@H](CC(=O)O)C(=O)N[C@@H]([C@@H](C)O)C(=O)N[C@@H](C)C(=O)N[C@@H]([C@@H](C)O)C(=O)N1)C(C)C)[C@@H](C)O)C(=O)N[C@@H](C)C(=O)N[C@@H](CC(=O)O)C(=O)N[C@@H](CC(C)C)C(=O)N[C@@H](CC(C)C)C(=O)N[C@@H](CO)C(=O)N[C@@H](CCCNC(=N)N)C(=O)N[C@@H](CO)C(=O)NCC(=O)NCC(=O)N[C@H](C(=O)N[C@H](C(=O)N[C@@H](CCCCN)C(=O)N[C@@H](CC(N)=O)C(=O)N[C@@H](CC(N)=O)C(=O)N[C@@H](Cc1ccccc1)C(=O)N[C@H](C(=O)N1CCC[C@H]1C(=O)N[C@H](C(=O)N[C@@H](CC(N)=O)C(=O)N[C@H](C(=O)NCC(=O)N[C@@H](CO)C(=O)N[C@@H](CCCCN)C(=O)N[C@@H](C)C(=O)N[C@@H](Cc1ccccc1)C(N)=O)C(C)C)[C@@H](C)O)C(C)C)C(C)C)C(C)C [[Asp¹⁴ ] -h -α-CGRP] (H-ACDTATCVTHRLADLLSRSGGVVKNNFVPTNVGSKAF-NH2; disulfide 2-7)	No deaths were observed
desalanyl-deamino-c-CGRP	No deaths were observed
p - CGRP	No deaths were observed
r - β- CGRP	No deaths were observed
desalanyl-deamino- [Asn³, Asp¹⁴, Gly²³] -h -α-CGRP	No deaths were observed
CC(C)C[C@H](NC(=O)[C@H](CCCNC(=N)N)NC(=O)[C@H](Cc1c[nH]cn1)NC(=O)[C@@H](NC(=O)[C@@H](NC(=O)[C@@H]1CSSC[C@H](NC(=O)[C@H](C)N)C(=O)N[C@@H](CC(N)=O)C(=O)N[C@@H]([C@@H](C)O)C(=O)N[C@@H](C)C(=O)N[C@@H]([C@@H](C)O)C(=O)N1)C(C)C)[C@@H](C)O)C(=O)N[C@@H](C)C(=O)N[C@@H](CC(=O)O)C(=O)N[C@@H](CC(C)C)C(=O)N[C@@H](CC(C)C)C(=O)N[C@@H](CO)C(=O)N[C@@H](CCCNC(=N)N)C(=O)N[C@@H](CO)C(=O)NCC(=O)NCC(=O)N[C@H](C(=O)NCC(=O)N[C@@H](CCCCN)C(=O)N[C@@H](CC(N)=O)C(=O)N[C@@H](CC(N)=O)C(=O)N[C@@H](Cc1ccccc1)C(=O)N[C@H](C(=O)N1CCC[C@H]1C(=O)N[C@H](C(=O)N[C@@H](CC(N)=O)C(=O)N[C@H](C(=O)NCC(=O)N[C@@H](CO)C(=O)N[C@@H](CCCCN)C(=O)N[C@@H](C)C(=O)N[C@@H](Cc1ccccc1)C(N)=O)C(C)C)[C@@H](C)O)C(C)C)C(C)C [[Asn³, Asp¹⁴, Gly²³] -h -α-CGRP] (H-ACNTATCVTHRLADLLSRSGGVGKNNFVPTNVGSKAF-NH2; disulfide 2-7)	No deaths were observed
desalanyl- [Asu^2,⁷] - c-CGRP	No deaths were observed
CC(C)C[C@H](NC(=O)CNC(=O)[C@H](C)NC(=O)[C@H](CC(C)C)NC(=O)[C@H](CCCNC(=N)N)NC(=O)[C@H](Cc1cnc[nH]1)NC(=O)[C@@H](NC(=O)[C@@H](NC(=O)[C@@H]1CSSC[C@H](NC(=O)[C@H](C)N)C(=O)N[C@@H](CC(=O)O)C(=O)N[C@@H]([C@@H](C)O)C(=O)N[C@@H](C)C(=O)N[C@@H]([C@@H](C)O)C(=O)N1)C(C)C)[C@@H](C)O)C(=O)N[C@@H](CC(C)C)C(=O)N[C@@H](CO)C(=O)N[C@@H](CCCNC(=N)N)C(=O)N[C@@H](CO)C(=O)NCC(=O)NCC(=O)N[C@H](C(=O)N[C@H](C(=O)N[C@@H](CCCCN)C(=O)N[C@@H](CC(N)=O)C(=O)N[C@@H](CC(N)=O)C(=O)N[C@@H](Cc1ccccc1)C(=O)N[C@H](C(=O)N1CCC[C@H]1C(=O)N[C@H](C(=O)N[C@@H](CC(N)=O)C(=O)N[C@H](C(=O)NCC(=O)N[C@@H](CO)C(=O)N[C@@H](CCCCN)C(=O)N[C@@H](C)C(=O)N[C@@H](Cc1ccccc1)C(N)=O)C(C)C)[C@@H](C)O)C(C)C)C(C)C)C(C)C [h - α - CGRP]	No deaths were observed
desalanyl-deamino- [Asn³, Asp¹⁴, Phe¹⁵] -h -α-CGRP	No deaths were observed
h - β- CGRP	No deaths were observed
desalanyl-deamino- [Asn³, Phe¹⁵, Gly²³] -h -α-CGRP	No deaths were observed
desalanyl-deamino-h-α-CGRP	No deaths were observed
r - α - CGRP	No deaths were observed
CC(C)C[C@H](NC(=O)[C@H](CCCNC(=N)N)NC(=O)[C@H](Cc1c[nH]cn1)NC(=O)[C@@H](NC(=O)[C@@H](NC(=O)[C@@H]1CSSC[C@H](NC(=O)[C@H](C)N)C(=O)N[C@@H](CC(N)=O)C(=O)N[C@@H]([C@@H](C)O)C(=O)N[C@@H](C)C(=O)N[C@@H]([C@@H](C)O)C(=O)N1)C(C)C)[C@@H](C)O)C(=O)N[C@@H](C)C(=O)NCC(=O)N[C@@H](Cc1ccccc1)C(=O)N[C@@H](CC(C)C)C(=O)N[C@@H](CO)C(=O)N[C@@H](CCCNC(=N)N)C(=O)N[C@@H](CO)C(=O)NCC(=O)NCC(=O)N[C@H](C(=O)NCC(=O)N[C@@H](CCCCN)C(=O)N[C@@H](CC(N)=O)C(=O)N[C@@H](CC(N)=O)C(=O)N[C@@H](Cc1ccccc1)C(=O)N[C@H](C(=O)N1CCC[C@H]1C(=O)N[C@H](C(=O)N[C@@H](CC(N)=O)C(=O)N[C@H](C(=O)NCC(=O)N[C@@H](CO)C(=O)N[C@@H](CCCCN)C(=O)N[C@@H](C)C(=O)N[C@@H](Cc1ccccc1)C(N)=O)C(C)C)[C@@H](C)O)C(C)C)C(C)C [[Asn³, Phe¹⁵, Gly²³] -h -α-CGRP] (H-ACNTATCVTHRLAGFLSRSGGVGKNNFVPTNVGSKAF-NH2; disulfide 2-7)	No deaths were observed
CC(C)C[C@H](NC(=O)[C@H](CCCNC(=N)N)NC(=O)[C@H](Cc1c[nH]cn1)NC(=O)[C@@H](NC(=O)[C@@H](NC(=O)[C@@H]1CSSC[C@H](NC(=O)[C@H](C)N)C(=O)N[C@@H](CC(N)=O)C(=O)N[C@@H]([C@@H](C)O)C(=O)N[C@@H](C)C(=O)N[C@@H]([C@@H](C)O)C(=O)N1)C(C)C)[C@@H](C)O)C(=O)N[C@@H](C)C(=O)N[C@@H](CCC(=O)O)C(=O)N[C@@H](Cc1ccccc1)C(=O)N[C@@H](CC(C)C)C(=O)N[C@@H](CO)C(=O)N[C@@H](CCCNC(=N)N)C(=O)N[C@@H](CO)C(=O)NCC(=O)NCC(=O)N[C@H](C(=O)N[C@H](C(=O)N[C@@H](CCCCN)C(=O)N[C@@H](CC(N)=O)C(=O)N[C@@H](CC(N)=O)C(=O)N[C@@H](Cc1ccccc1)C(=O)N[C@H](C(=O)N1CCC[C@H]1C(=O)N[C@H](C(=O)N[C@@H](CC(N)=O)C(=O)N[C@H](C(=O)NCC(=O)N[C@@H](CO)C(=O)N[C@@H](CCCCN)C(=O)N[C@@H](C)C(=O)N[C@@H](Cc1ccccc1)C(N)=O)C(C)C)[C@@H](C)O)C(C)C)C(C)C)C(C)C [[Asn³, Glu¹⁴, Phe¹⁵] -h -α-CGRP] (H-ACNTATCVTHRLAEFLSRSGGVVKNNFVPTNVGSKAF-NH2; disulfide 2-7)	No deaths were observed
desalanyl-deamino- [Glu¹⁴ ] -h -α-CGRP	No deaths were observed
CC(C)C[C@H](NC(=O)[C@H](CCCNC(=N)N)NC(=O)[C@H](Cc1c[nH]cn1)NC(=O)[C@@H](NC(=O)[C@@H](NC(=O)[C@@H]1CSSC[C@H](NC(=O)[C@H](C)N)C(=O)N[C@@H](CC(N)=O)C(=O)N[C@@H]([C@@H](C)O)C(=O)N[C@@H](C)C(=O)N[C@@H]([C@@H](C)O)C(=O)N1)C(C)C)[C@@H](C)O)C(=O)N[C@@H](C)C(=O)N[C@@H](CCC(=O)O)C(=O)N[C@@H](CC(C)C)C(=O)N[C@@H](CC(C)C)C(=O)N[C@@H](CO)C(=O)N[C@@H](CCCNC(=N)N)C(=O)N[C@@H](CO)C(=O)NCC(=O)NCC(=O)N[C@H](C(=O)NCC(=O)N[C@@H](CCCCN)C(=O)N[C@@H](CC(N)=O)C(=O)N[C@@H](CC(N)=O)C(=O)N[C@@H](Cc1ccccc1)C(=O)N[C@H](C(=O)N1CCC[C@H]1C(=O)N[C@H](C(=O)N[C@@H](CC(N)=O)C(=O)N[C@H](C(=O)NCC(=O)N[C@@H](CO)C(=O)N[C@@H](CCCCN)C(=O)N[C@@H](C)C(=O)N[C@@H](Cc1ccccc1)C(N)=O)C(C)C)[C@@H](C)O)C(C)C)C(C)C [[Asn³, Glu¹⁴, Gly²³] -h -α-CGRP] (H-ACNTATCVTHRLAELLSRSGGVGKNNFVPTNVGSKAF-NH2; disulfide 2-7)	No deaths were observed
desalanyl-deamino- [Asp¹⁴ ] -h -α-CGRP	No deaths were observed
c - CGRP	No deaths were observed
CC(C)C[C@H](NC(=O)[C@H](CCCNC(=N)N)NC(=O)[C@H](Cc1c[nH]cn1)NC(=O)[C@@H](NC(=O)[C@@H](NC(=O)[C@@H]1CSSC[C@H](NC(=O)[C@H](C)N)C(=O)N[C@@H](CC(=O)O)C(=O)N[C@@H]([C@@H](C)O)C(=O)N[C@@H](C)C(=O)N[C@@H]([C@@H](C)O)C(=O)N1)C(C)C)[C@@H](C)O)C(=O)N[C@@H](C)C(=O)N[C@@H](CCC(=O)O)C(=O)N[C@@H](CC(C)C)C(=O)N[C@@H](CC(C)C)C(=O)N[C@@H](CO)C(=O)N[C@@H](CCCNC(=N)N)C(=O)N[C@@H](CO)C(=O)NCC(=O)NCC(=O)N[C@H](C(=O)N[C@H](C(=O)N[C@@H](CCCCN)C(=O)N[C@@H](CC(N)=O)C(=O)N[C@@H](CC(N)=O)C(=O)N[C@@H](Cc1ccccc1)C(=O)N[C@H](C(=O)N1CCC[C@H]1C(=O)N[C@H](C(=O)N[C@@H](CC(N)=O)C(=O)N[C@H](C(=O)NCC(=O)N[C@@H](CO)C(=O)N[C@@H](CCCCN)C(=O)N[C@@H](C)C(=O)N[C@@H](Cc1ccccc1)C(N)=O)C(C)C)[C@@H](C)O)C(C)C)C(C)C)C(C)C [[Glu¹⁴ ] -h -α-CGRP] (H-ACDTATCVTHRLAELLSRSGGVVKNNFVPTNVGSKAF-NH2; disulfide 2-7)	No deaths were observed
desalanyl- [Asp^3, Asu^2,⁷)-c-CGRP	No deaths were observed
desalanyl-deamino- [Asn³, Glu¹⁴, Gly²³] -h -α-CGRP	No deaths were observed
desalanyl-deamino-h-β-CGRP	No deaths were observed
desalanyl-deamino- [Asn³, Glu¹⁴, Phe¹⁵] -h -α-CGRP	No deaths were observed
desalanyl- [Asu^2,7] -h - α-CGRP	No deaths were observed
